Experiment [1] concerns freshly isolated dendritic cells (CD11c+ splenocytes). Kind of experiment: Dendritic cell (DC) assay: IL12 release from freshly isolated dendritic cells. Type of experiment: cell-based, BALB/c mice. The conditions noted are these: for DC mIL12 Release: tested for synergism and inhibition. An excerpt:
In a preferred embodiment, dendritic cell (DC) assay is used to follow interleukin-12 (IL-12) release from freshly isolated dendritic cells as an index of DC activation (see section 12.3). […] Briefly, by way of example but not limitation, a DC assay can be carried out as follows: freshly isolated dendritic cells (CD11c^+ splenocytes, e.g., isolated from the spleens of BALB/c mice within ten hours of assaying the activity) are suspended at a density of 0.5×10^6 cells per mL in cytokine supplemented culture media (GM-CSF, 1.0 ng/ml; IL-4, 1.0 ng/ml; IFNg, 3.0 ng/ml; anti mouse CD40, 0.5 mg/ml). […] Mouse IL-12 release from the dendritic cells (CD11c^+ splenocytes) is then measured using ELISA.
To follow the activity in semi-purified preparations of BEX, an assay which follows IL12 release from freshly isolated dendritic cells (DCs) as an index of DC activation was developed. This activity is highly correlated with both NK-CMC in vitro and anti-tumor activity in vivo.
DCs were isolated from the spleens of male BALB/c mice 8-12 weeks of age (Harlan Bioproducts for Science, Indianapolis, Ind.), using the magnetic assisted cell separation (MACS) system purchased from Miltenyi Biotech. In summary: Spleens were aseptically removed from mice and placed into a petri dish containing 5 mL holding media (DMEM/F12 supplemented with 10% FCS and antibiotics). Each spleen was then injected with ˜0.5 mls collagenase D solution (1 mg/mL in 10 mM Hepes-NaOH, pH 7.4, 150 mM NaCl, 5 mM MgCl2, 1.8 mM CaCl2), placed into 5-10 mL collagenase D, cut into 5-6 pieces and incubated at 37° C. for 45-60 min. Collagenase-digested spleens were then processed with glass slides and passed through a 70 μm nylon mesh cell strainer. After the strainer was flushed with 40 mL culture media, cells were centrifuged (8 min @ 200×G), suspended in 1 mL PBS and subjected to red blood cell lysis by incubating the cell suspension for 5 min at room temperature in 10 mL lysis buffer (155 mM NH4Cl, 10 mM KHCO3, 0.1 mM EDTA), followed by dilution in PBS to 50 mL and centrifugation (8 min @ 200×g). The splenocytes were then suspended in 10 mL MACS buffer (PBS pH 7.2, supplemented with 2 mM EDTA and 0.5% BSA), passed through a 40 μm nylon mesh cell strainer which was flushed with 40 mL MACS buffer. A preliminary cell count was taken at this time, prior to centrifugation (8 min @ 200×G). The splenocytes were suspended at a density of 10^8 cells per 400 μL MACS buffer. Paramagnetic MicroBeads coated with anti-CD11c^+ antibody were mixed with the splenocyte suspension (100 μL per 10^8 cells), incubated at +4° C. for 15 min, washed, suspended in 1.0 mL MACS buffer and passed through a MS+ separation column placed within a strong magnetic field. CD11c^+ cells were retained in the column whereas CD11c^− cells were washed off the column as the flow-through cell fraction. CD11c^+ cells were then collected by removing the column out of the magnetic field and flushing the column twice with 1 mL of MACS buffer. CD11c^+ cells were washed once with culture media and suspended at a density of 0.5×10^6 cells per mL in cytokine supplemented culture media {DMEM/F12 supplemented with 10% FCS and gentamicin containing mouse GM-CSF (1 ng/mL), mouse IL-4 (1 ng/mL), mouse IFNγ (3 ng/mL) and anti mouse CD40 (0.5 mg/mL)}.
Mouse IL12 release from CD11c^+ splenocytes was measured using ELISA. Briefly, CD11c+ cell culture supernatants were sampled following an overnight incubation (usually 15-18 hrs). Media samples ([…]) were added to ELISA plates coated with anti mouse IL12 (p70) capture antibody (R&D #MAB419; 250 ng in 100 μL per well) and incubated either at 37° C. or room temperature for 2 hrs. The ELISA plates were washed extensively with wash buffer after which 100 μL per well of detection antibody/detection reagent (biotinylated anti-mouse IL12; R&D #BAF419 at 50 ng/mL and streptavidin-HRP) was added. […]

Experiment [2] relates to Mouse sarcoma 180 cells. Kind of experiment: NK cell-mediated cytotoxicity (NK-CMC) assay, LGL/S180 co-culture. The class given is cell-based. The conditions noted are these: wide range of concentrations, presence and absence of IL-2 (125 U/ml). On the procedure: In one embodiment, a NK cell assay is used to assess ARP-induced cytotoxic activity of NK-like cells (see section 12.2). Briefly, by way of example but not limitation, a NK cell assay can be carried out as follows: large granular lymphocytes (LGLs) are co-cultured with tumor cells at various ratios (effector to target ratio) for four days at 37° C., 5% CO2. […] The culture is terminated at the end of day 4 and vitally stained using a MTT cell viability quantification assay (see Mossman, T. J. Immunol. Methods 65: 55 (1983); and Sigma Chemical MTT (M5655) product application note). Culture media is aspirated and the remaining cells are washed and replaced with DMEM/F12 plus FCS, containing MTT. The cells are further incubated for 4-5 hours at 37° C. Absorbance is measured with the aid of a plate reader. Decreased absorbance indicated a decrease in the number of viable cells per well (i.e., cytotoxicity). Absorbance is measured again after the MTT is solubilized by replacement of the medium with 2-propanol containing HCl, which gives a uniform color throughout the well. NK-inducing activity is calculated relative to negative (PBS/BSA) and positive (internal standard) controls.
Spleens (10-15 per experiment) were aseptically removed from male Balb/C mice 6-10 weeks of age. Splenocytes were “squeezed” out of spleens using 2 sterile glass microscope slides. Cells were collected in approximately 10 ml of DMEM/F 12 containing 10% fetal calf serum (FCS) and gentamicin (50 μg/ml). Single cell suspensions were generated by passing collected cells through a 70 μm nylon mesh screen. After washing the cell pellet once with PBS (centrifuged at 675×g for 5 min), red blood cells were lysed by brief hypotonic shock (i.e. exposure to sterile distilled, deionized water, followed immediately with appropriate volumes of 10×PBS to return to isotonicity). Remaining cells were centrifuged and resuspended in DMEM/F12+10% FCS and transferred to 75 cm^2 flasks each containing 25 mls DMEM/F12+10% FCS (cells from 5 spleens per flask). The cells were incubated for 60 min. at 37° C. to selectively remove readily adherent cells (mainly fibroblasts and macrophages). After the incubation, the flasks were gently shaken and the non-adherent cells were removed, pelleted by centrifugation, and resuspended in DMEM/F12 (no supplements) (1.0 mL/10^8 cells). A 1.0 mL volume of these cell suspensions were carefully layered onto a 70%/60%/40% (2 mL/4 mL/4 mL) Percoll™ gradients in 15 ml centrifuge tubes and centrifuged for 30 min at 675×G. The cells which sediment at the 40/60 interface represent primarily large granular lymphocytes (LGLs), enriched with NK cells. These cells were carefully removed with a pasteur pipet, centrifuged, washed once with PBS and resuspended in approximately 5 mL DMEM/F12 supplemented with gentamicin (50 μg/mL) and 10% fetal calf serum. Cell counts and appropriate dilutions of LGL cells were made with these cells, as described below. For convenience this LGL cell preparation is interchangeably referred to as NK cells.
Mouse sarcoma 180 cells were seeded into 96 well plates at a density of 5×10^3 cells per well in 100 μl DMEM/F12, supplemented with 10% FCS and gentamicin (50 μg/mL). […] NK cells were added in 100 μL of supplemented DMEM/F12 at designated densities: 0 NK cells/well; 5×10^4 NK cells/well (1:10 target/effector ratio); 1.25×10^5 NK cells/well (1:25 target/effector ratio); 2.5×10^5 NK cells/well (1:50 target/effector ratio); and, 5×10^5 NK cells/well (1:100 target/effector ratio). (Note: routinely, only the 1:50 and 1:100 ratios were used for screening purposes. IL2 was added as a media supplement with final concentration of 125 U/mL.). Co-cultures were incubated for 4 days at 37° C., 5% CO2, and terminated and vitally stained using a MTT cell viability quantification assay (see Mossman, T. J. Immunol. Methods 65:55 (1983); and Sigma Chemical MTT (M5655) product application note). […]

Ends that are not written are not given here.

As to `N[C@@H](CCC(=O)N[C@@H](CS)C(=O)NCC(=O)O)C(=O)O` [reduced glutathione], in experiment [1] (excess added to the assay system), the “effect on responses in the DC assay” value was “lowered the responses”. Turning to “Cecropin A: defensin / anti-microbial peptide (KWKLFKKIEKVGQNIRDGIIKAGPAVAVVGQATQIAK; UniProt P01507 27-63, looked up)”, the “NK-CMC Activity” value in experiment [2] is recorded as “−”. Turning to “Cecropin B: defensin / anti-microbial peptide (KWKVFKKIEKMGRNIRNGIVKAGPAIAVLGEAKAL; ends and bridges not checked; UniProt P01508 27-61, looked up)”, in experiment [2], the “NK-CMC Activity” value is “−”.

On to Cecropin P1, for which, in experiment [2], the “NK-CMC Activity” value was “−”.

For FGFbasic: growth factor, the “DC mIL12 Release” value in experiment [1] is recorded as “−”. Moreover, in experiment [2], the “NK-CMC Activity” value is on record as “−”. As for IFN α, in experiment [2], the “NK-CMC Activity” value is recorded as “−”. As for IL-1 β: interleukin, the “DC mIL12 Release” value in experiment [1] is reported as “−”. In addition, the “NK-CMC Activity” value in experiment [2] is reported as “−^3”. On to IL-5: interleukin, for which the “DC mIL12 Release” value in experiment [1] was “−”. In addition, the “NK-CMC Activity” value in experiment [2] is given as “−”. On to IL-6: interleukin, for which the “DC mIL12 Release” value in experiment [1] was “−”. The “NK-CMC Activity” value in experiment [2] was “−”.

With IL-15: interleukin, the “NK-CMC Activity” value in experiment [2] is recorded as “−”. Take JE/MCP-1: chemokine: the “NK-CMC Activity” value in experiment [2] is on record as “−”. As to Magainin I, in experiment [2], the “NK-CMC Activity” value is reported as “−”.

For Magainin II, the “NK-CMC Activity” value in experiment [2] is listed as “−”. The same measure, in the same setting: under TGF α: growth factor stands “−”. TGF β: the “DC mIL12 Release” value in experiment [1] is “−”. Moreover, the “NK-CMC Activity” value in experiment [2] is listed as “−”. With TNF α, the “DC mIL12 Release” value in experiment [1] is “−”. Turning to “truncated molecule lacking GEADTQAWDTSVREWLVDT: E. tenella ARP with start codon moved to the 21th position (listed as Eimeria tenella)”, in experiment [1] (recombinant E. tenella ARP variants), the “DC-activity compared to full-length ARP” value is “activity was lost”.

B1: MIP-1 α: chemokine (protein, UniProt P10147 24-92, looked up)
C-C motif chemokine 3: SLAADTPTACCFSYTSRQIPQNFIADYFETSSQCSKPGVIFLTKRSRQVCADPSEEWVQKYVSDLELSA
As for B1, the “NK-CMC Activity” value in experiment [2] is “−”.

B2: IL-2: Interleukin 2 (protein, UniProt P04351 21-169, looked up)
Interleukin-2: APTSSSTSSSTAEAQQQQQQQQQQQQHLEQLLMDLQELLSRMENYRNLKLPRMLTFKFYLPKQATELKDLQCLEDELGPLRHVLDLTQSKSFQLEDAENFISNIRVTVVKLKGSDNTFECQFDDESATVVDFLRRWIAFCQSIISTSPQ
As to B2, the “DC mIL12 Release” value in experiment [1] was “−”.

B3: KC: chemokine (protein, UniProt P12850 25-96, looked up)
Growth-regulated alpha protein: APIANELRCQCLQTMAGIHLKNIQSLKVLPSGPHCTQTEVIATLKNGREACLDPEAPLVQKIVQKMLKGVPK
Turning to B3, the “NK-CMC Activity” value in experiment [2] is reported as “−”.

B4: IL-11: interleukin (protein, UniProt P20809 22-199, looked up)
Interleukin-11: PGPPPGPPRVSPDPRAELDSTVLLTRSLLADTRQLAAQLRDKFPADGDHNLDSLPTLAMSAGALGALQLPGVLTRLRADLLSYLRHVQWLRRAGGSSLKTLEPELGTLQARLDRLLRRLQLLMSRLALPQPPPDPPAPPLAPPSSAWGGIRAAHAILGGLHLTLDWAVRGLLLLKTRL
With B4, the “NK-CMC Activity” value in experiment [2] was “−”.

B5: IL-7: interleukin (protein, UniProt P10168 26-154, looked up)
Interleukin-7: ECHIKDKEGKAYESVLMISIDELDKMTGTDSNCPNNEPNFFRKHVCDDTKEAAFLNRAARKLKQFLKMNISEEFNVHLLTVSQGTQTLVNCTSKEEKNVKEQKKNDACFLKRLLREIKTCWNKILKGSI
As to B5, in experiment [2], the “NK-CMC Activity” value is on record as “−”.

B6: IL-4: interleukin (protein, UniProt P07750 21-140, looked up)
Interleukin-4: HIHGCDKNHLREIIGILNEVTGEGTPCTEMDVPNVLTATKNTTESELVCRASKVLRIFYLKHGKTPCLKKNSSVLMELQRLFRAFRCLDSSISCTMNESKSTSLKDFLESLKSIMQMDYS
B6: the “NK-CMC Activity” value in experiment [2] is “−”.

B7: IL-18: interleukin (protein, UniProt P70380 36-192, looked up)
Interleukin-18: NFGRLHCTTAVIRNINDQVLFVDKRQPVFEDMTDIDQSASEPQTRLIIYMYKDSEVRGLAVTLSVKDSKMSTLSCKNKIISFEEMDPPENIDDIQSDLIFFQKRVPGHNKMEFESSLYEGHFLACQKEDDAFKLILKKKDENGDKSVMFTLTNLHQS
B7: the “DC mIL12 Release” value in experiment [1] is on record as “−”.

These data come from patent US8257714B2, “Compositions and methods for immunotherapy of cancer and infectious diseases” (priority 2003, dated 2012).
